± gives the standard deviation of the averaged measurements.
Assays:
NILOTINIB = compound: Cc1cn(-c2cc(NC(=O)c3ccc(C)c(Nc4nccc(-c5cccnc5)n4)c3)cc(C(F)(F)F)c2)cn1 [NILOTINIB]; test: surviving fraction relative to DMSO-only wells; higher = less growth inhibition; details: exposure time: 5 days
In short: (§1)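 Log-phase tumour cell lines, 250–500 cells per well in 384-well plates, received inhibitors at 0.5, 1, 5, 10, 50, 100, 500 and 1000 nM continuously for five days, starting 24 hours after seeding. Viability was quantified with CellTiter-Glo luminescence and normalised to the median of DMSO-only wells to give surviving fraction. Three screens were run per line, and a line stayed in only with replicate Pearson r >0.7 and median Z' >0.3.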

VORINOSTAT = compound: O=C(CCCCCCC(=O)Nc1ccccc1)NO [VORINOSTAT]; test: as above; details: exposure time: 5 days
In short: as §1

Test System	surviving fraction (NILOTINIB; 0.5 nM)	surviving fraction (NILOTINIB; 1 nM)	surviving fraction (NILOTINIB; 5 nM)	surviving fraction (NILOTINIB; 10 nM)	surviving fraction (NILOTINIB; 50 nM)	surviving fraction (NILOTINIB; 100 nM)	surviving fraction (NILOTINIB; 500 nM)	surviving fraction (NILOTINIB; 1000 nM)	surviving fraction (VORINOSTAT; 0.5 nM)	surviving fraction (VORINOSTAT; 1 nM)	surviving fraction (VORINOSTAT; 5 nM)	surviving fraction (VORINOSTAT; 10 nM)	surviving fraction (VORINOSTAT; 50 nM)	surviving fraction (VORINOSTAT; 100 nM)	surviving fraction (VORINOSTAT; 500 nM)	surviving fraction (VORINOSTAT; 1000 nM)
SG27 HEADNECK	1.13 ± 0.03	1.09 ± 0.087	1.02 ± 0.066	1.06 ± 0.063	1.11 ± 0.21	1.04 ± 0.056	1.17 ± 0.091	1.23 ± 0.051	1.22 ± 0.15	1.05 ± 0.089	1.01 ± 0.13	1.08 ± 0.048	0.989 ± 0.1	0.955 ± 0.088	0.824 ± 0.097	0.755 ± 0.048
SG28 HEADNECK	1.07 ± 0.044	1.05 ± 0.025	1.07 ± 0.062	1.07 ± 0.042	0.782 ± 0.042	0.907 ± 0.068	0.84 ± 0.013	0.903 ± 0.067	1.11 ± 0.14	1.16 ± 0.17	1.066 ± 0.0025	1.09 ± 0.018	1.03 ± 0.073	1.09 ± 0.032	0.998 ± 0.081	0.809 ± 0.11
SG31 HEADNECK	1.24 ± 0.13	1.2 ± 0.13	1.08 ± 0.11	1.24 ± 0.21	1.14 ± 0.081	1.26 ± 0.17	1.02 ± 0.15	1.16 ± 0.13	1.07 ± 0.21	1.05 ± 0.27	1.02 ± 0.078	1.01 ± 0.18	1.08 ± 0.12	1.04 ± 0.042	0.948 ± 0.14	0.63 ± 0.027
SG32 HEADNECK	0.984 ± 0.025	0.986 ± 0.062	1.16 ± 0.12	1.24 ± 0.26	0.823 ± 0.21	0.864 ± 0.16	0.866 ± 0.039	0.834 ± 0.12	0.938 ± 0.1	1.18 ± 0.35	1.18 ± 0.2	0.933 ± 0.053	1.03 ± 0.25	0.995 ± 0.21	0.697 ± 0.16	0.344 ± 0.068
SG43 HEADNECK	1.19 ± 0.17	1.12 ± 0.25	1.05 ± 0.13	1.05 ± 0.055	1.66 ± 0.17	1.76 ± 0.32	1.93 ± 0.23	1.98 ± 0.2	1.08 ± 0.16	1.13 ± 0.12	0.836 ± 0.23	1.03 ± 0.21	0.949 ± 0.15	1.1 ± 0.033	1.04 ± 0.28	0.729 ± 0.21
SIHA CERVIX	1.03 ± 0.029	1.02 ± 0.029	1 ± 0.024	1.11 ± 0.04	1.09 ± 0.036	1.061 ± 0.0087	1.05 ± 0.055	1.03 ± 0.037	0.978 ± 0.05	0.965 ± 0.018	1.07 ± 0.025	1.06 ± 0.13	1.2 ± 0.032	1.17 ± 0.13	1.15 ± 0.035	1 ± 0.14
SJSA1 BONE	1.73 ± 0.13	1.67 ± 0.1	1.65 ± 0.08	1.802 ± 0.014	1.56 ± 0.1	1.69 ± 0.04	1.63 ± 0.074	1.77 ± 0.044	0.793 ± 0.037	0.946 ± 0.057	0.844 ± 0.049	0.953 ± 0.067	0.844 ± 0.021	0.973 ± 0.059	0.544 ± 0.035	0.672 ± 0.03
SKBR3 BREAST	1.01 ± 0.13	1.02 ± 0.074	1 ± 0.037	0.994 ± 0.13	0.731 ± 0.097	0.826 ± 0.18	0.744 ± 0.061	0.775 ± 0.076	1 ± 0.11	0.996 ± 0.15	0.85 ± 0.03	0.915 ± 0.17	0.98 ± 0.13	1.02 ± 0.15	0.433 ± 0.046	0.179 ± 0.046
SNU475 LIVER	1.05 ± 0.028	1 ± 0.036	1.01 ± 0.031	1.04 ± 0.017	0.941 ± 0.026	0.939 ± 0.03	0.953 ± 0.024	0.858 ± 0.076	0.9603 ± 0.0081	0.944 ± 0.021	0.966 ± 0.028	0.831 ± 0.037	0.968 ± 0.027	0.941 ± 0.026	0.817 ± 0.018	0.556 ± 0.024
SUM44 BREAST	1.03 ± 0.19	1.04 ± 0.21	1.08 ± 0.23	1.07 ± 0.15	0.958 ± 0.012	0.934 ± 0.059	0.943 ± 0.064	0.932 ± 0.083	0.934 ± 0.025	0.954 ± 0.037	0.951 ± 0.0099	1.01 ± 0.086	1.07 ± 0.016	0.917 ± 0.038	0.418 ± 0.031	0.294 ± 0.013
